Laboratory results from US9267129B2, “Compositions and methods for conferring herbicide resistance” (BEN-GURION UNIVERSITY OF THE NEGEV RESEARCH AND DEVELOPMENT …, priority 2011, dated 2016).

Test system: E. coli BUM1 transformed with pAH29 (bacterial AHASII)
Assay: Growth on M9 plates with SMM, bacteria transformed with pAH29
Assay type: cell-based, Escherichia coli
Details: 50 μM SMM, 48 hrs, 37° C.
Description: This strain also requires proline and thiamin, regardless of AHAS expression. Transformation of BUM1 cells was achieved using a standard heat shock protocol. BUM1 cells were grown in LB or in M9 minimal medium (7 mg/ml Na2HPO4; 3 mg/ml KH2PO4; 0.5 mg/ml NaCl; 1 mg/ml NH4Cl; 0.12 mg/ml MgSO4; 0.35 mg/ml thiamin HCl; 2 mg/ml glucose) supplemented with 200 μg/ml proline. Where appropriate, the M9 medium was supplemented with the BCAAs valine, leucine, and isoleucine (150 μg/ml of each) or with 50 μM SMM. BUM1 transformants were propagated and kept on LB medium supplemented with 100 μg/ml Ampicillin. For functional expression assays, the cells were washed and plated on M9 agar plates and incubated for 48 hrs at 37° C. […]
The expression vector pEp-empty, an empty plasmid that retains the native ilvEp promoter and ATG start codon, was created by amplification of pAH29 plasmid with the pAH29-empty primer set, and included BamHI and SalI restriction sites for future fusion with the algal genes. Three forms of PiAHAS genes were used for this experiment: PiAHAS full open reading frame (ORF), truncated PiAHAS without the estimated chloroplast targeting peptide (from Serine91), and PimAHAS containing the point mutation (W605S). […] The plates were incubated for 48 hrs (FIG. 3) and bacterial growth was determined. […]

COC(=O)c1ccccc1S(=O)(=O)NC(=O)Nc1nc(C)cc(C)n1 [SMM, sulfometuron methyl]
bacterial growth in presence of SMM: able to grow slowly
